Measured values taken from the supplement of paper PMC11451515.

Test system: P12-Ichikawa
Assay: cell viability relative to DMSO control; higher = less cytotoxic
Conditions: 48 h
Procedure, shortened: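 NOMO1, SEM and P12-Ichikawa leukemia cells spent at least four passages adapting to each medium before use. They were seeded at 500 cells/well (NOMO1, SEM) or 1000 cells/well (P12-Ichikawa) in 5 μl in 1536-well plates and pin-dosed with library compounds in DMSO at 11 threefold steps from 47 μM down to 0.79 nM. After 48 h at 37°C, CellTiter-Glo One luminescence was read. Viability is reported as a percentage of the DMSO wells on each plate, with cell-free wells as background.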

[1] = HPLM + 10% dialyzed FBS, 0.000781 µM
[2] = HPLM + 10% dialyzed FBS, 0.00234 µM
[3] = HPLM + 10% dialyzed FBS, 0.00702 µM
[4] = HPLM + 10% dialyzed FBS, 0.0211 µM
[5] = HPLM + 10% dialyzed FBS, 0.0632 µM
[6] = HPLM + 10% dialyzed FBS, 0.19 µM
[7] = HPLM + 10% dialyzed FBS, 0.569 µM
[8] = HPLM + 10% dialyzed FBS, 1.71 µM
[9] = HPLM + 10% dialyzed FBS, 5.12 µM
[10] = HPLM + 10% dialyzed FBS, 15.4 µM
[11] = HPLM + 10% dialyzed FBS, 46.1 µM
[12] = RPMI 5 mM glucose + 10% FBS, 0.000781 µM
[13] = RPMI 5 mM glucose + 10% FBS, 0.00234 µM
[14] = RPMI 5 mM glucose + 10% FBS, 0.00702 µM
[15] = RPMI 5 mM glucose + 10% FBS, 0.0211 µM
[16] = RPMI 5 mM glucose + 10% FBS, 0.0632 µM
[17] = RPMI 5 mM glucose + 10% FBS, 0.19 µM
[18] = RPMI 5 mM glucose + 10% FBS, 0.569 µM
[19] = RPMI 5 mM glucose + 10% FBS, 1.71 µM
[20] = RPMI 5 mM glucose + 10% FBS, 5.12 µM
[21] = RPMI 5 mM glucose + 10% FBS, 15.4 µM
[22] = RPMI 5 mM glucose + 10% FBS, 46.1 µM
[23] = RPMI 5 mM glucose + 10% dialyzed FBS, 0.000781 µM
[24] = RPMI 5 mM glucose + 10% dialyzed FBS, 0.00234 µM
[25] = RPMI 5 mM glucose + 10% dialyzed FBS, 0.00702 µM
[26] = RPMI 5 mM glucose + 10% dialyzed FBS, 0.0211 µM
[27] = RPMI 5 mM glucose + 10% dialyzed FBS, 0.0632 µM
[28] = RPMI 5 mM glucose + 10% dialyzed FBS, 0.19 µM
[29] = RPMI 5 mM glucose + 10% dialyzed FBS, 0.569 µM
[30] = RPMI 5 mM glucose + 10% dialyzed FBS, 1.71 µM
[31] = RPMI 5 mM glucose + 10% dialyzed FBS, 5.12 µM
[32] = RPMI 5 mM glucose + 10% dialyzed FBS, 15.4 µM
[33] = RPMI 5 mM glucose + 10% dialyzed FBS, 46.1 µM

## CC(C)(C)C1=CC(=C(NC(=O)C/2=C/NC3=C(C=CC=C3)C2=O)C=C1O)C(C)(C)C
[1]
  cell viability: 123%
[2]
  cell viability: 113%
[3]
  cell viability: 124%
[4]
  cell viability: 120%
[5]
  cell viability: 121%
[6]
  cell viability: 124%
[7]
  cell viability: 120%
[8]
  cell viability: 118%
[9]
  cell viability: 118%
[10]
  cell viability: 114%
[11]
  cell viability: 112%
[12]
  cell viability: 124%
[13]
  cell viability: 139%
[14]
  cell viability: 124%
[15]
  cell viability: 133%
[16]
  cell viability: 119%
[17]
  cell viability: 124%
[18]
  cell viability: 131%
[19]
  cell viability: 115%
[20]
  cell viability: 117%
[21]
  cell viability: 116%
[22]
  cell viability: 112%

## CCOC(=O)[C@H]1O[C@@H]1C(=O)N[C@@H](CC(C)C)C(=O)NCCC(C)C
[1]
  cell viability: 123%
[2]
  cell viability: 114%
[3]
  cell viability: 121%
[4]
  cell viability: 127%
[5]
  cell viability: 123%
[6]
  cell viability: 123%
[7]
  cell viability: 117%
[8]
  cell viability: 116%
[9]
  cell viability: 117%
[10]
  cell viability: 108%
[11]
  cell viability: 106%
[12]
  cell viability: 128%
[13]
  cell viability: 121%
[14]
  cell viability: 119%
[15]
  cell viability: 118%
[16]
  cell viability: 124%
[17]
  cell viability: 115%
[18]
  cell viability: 127%
[19]
  cell viability: 116%
[20]
  cell viability: 115%
[21]
  cell viability: 106%
[22]
  cell viability: 92.9%
[23]
  cell viability: 116%
[24]
  cell viability: 119%
[25]
  cell viability: 115%
[26]
  cell viability: 121%
[27]
  cell viability: 124%
[28]
  cell viability: 119%
[29]
  cell viability: 122%
[30]
  cell viability: 119%
[31]
  cell viability: 118%
[32]
  cell viability: 109%
[33]
  cell viability: 102%

## C[N]1C=C(C=N1)C2=CC=C3N=CC\4=C(N(C(=O)\C=C4)C5=CC6=C(CCN6C(=O)C=C)C=C5)C3=C2
[1]
  cell viability: 106%
[2]
  cell viability: 121%
[3]
  cell viability: 109%
[4]
  cell viability: 114%
[5]
  cell viability: 112%
[6]
  cell viability: 115%
[7]
  cell viability: 105%
[8]
  cell viability: 95.4%
[9]
  cell viability: 79.9%
[10]
  cell viability: 20.8%
[11]
  cell viability: 20.4%
[12]
  cell viability: 123%
[13]
  cell viability: 112%
[14]
  cell viability: 118%
[15]
  cell viability: 114%
[16]
  cell viability: 110%
[17]
  cell viability: 113%
[18]
  cell viability: 111%
[19]
  cell viability: 98%
[20]
  cell viability: 74.6%
[21]
  cell viability: 7.13%
[22]
  cell viability: 5.07%
[23]
  cell viability: 116%
[24]
  cell viability: 128%
[25]
  cell viability: 117%
[26]
  cell viability: 120%
[27]
  cell viability: 115%
[28]
  cell viability: 126%
[29]
  cell viability: 119%
[30]
  cell viability: 98.4%
[31]
  cell viability: 82.2%
[32]
  cell viability: 6.85%
[33]
  cell viability: 4.97%

## NC(CO)C(=O)NNCc1ccc(O)c(O)c1O (configuration not stated)
[1]
  cell viability: 103%
[2]
  cell viability: 93.7%
[3]
  cell viability: 99.7%
[4]
  cell viability: 103%
[5]
  cell viability: 103%
[6]
  cell viability: 100%
[7]
  cell viability: 87.9%
[8]
  cell viability: 90.7%
[9]
  cell viability: 90.9%
[10]
  cell viability: 92.2%
[11]
  cell viability: 54%
[12]
  cell viability: 96.5%
[13]
  cell viability: 100%
[14]
  cell viability: 99.6%
[15]
  cell viability: 91%
[16]
  cell viability: 105%
[17]
  cell viability: 99.5%
[18]
  cell viability: 91.7%
[19]
  cell viability: 92.8%
[20]
  cell viability: 93.6%
[21]
  cell viability: 81%
[22]
  cell viability: 19.1%
[23]
  cell viability: 99.9%
[24]
  cell viability: 89%
[25]
  cell viability: 94%
[26]
  cell viability: 98.3%
[27]
  cell viability: 96.5%
[28]
  cell viability: 93.7%
[29]
  cell viability: 88.6%
[30]
  cell viability: 94.2%
[31]
  cell viability: 85.3%
[32]
  cell viability: 91.4%
[33]
  cell viability: 26.5%

## O=C(O)Cc1cccc(OCCCN(Cc2cccc(C(F)(F)F)c2Cl)CC(c2ccccc2)c2ccccc2)c1
[1]
  cell viability: 117%
[2]
  cell viability: 115%
[3]
  cell viability: 116%
[4]
  cell viability: 121%
[5]
  cell viability: 119%
[6]
  cell viability: 115%
[7]
  cell viability: 116%
[8]
  cell viability: 108%
[9]
  cell viability: 108%
[10]
  cell viability: 102%
[11]
  cell viability: 108%
[23]
  cell viability: 119%
[24]
  cell viability: 119%
[25]
  cell viability: 119%
[26]
  cell viability: 124%
[27]
  cell viability: 124%
[28]
  cell viability: 122%
[29]
  cell viability: 118%
[30]
  cell viability: 101%
[31]
  cell viability: 108%
[32]
  cell viability: 98.8%
[33]
  cell viability: 103%

## COc1cc(Cl)cn2c(-c3cccc(NC4CNC4)n3)cnc12
[1]
  cell viability: 125%
[2]
  cell viability: 121%
[3]
  cell viability: 131%
[4]
  cell viability: 125%
[5]
  cell viability: 129%
[6]
  cell viability: 130%
[7]
  cell viability: 131%
[8]
  cell viability: 135%
[9]
  cell viability: 129%
[10]
  cell viability: 127%
[11]
  cell viability: 139%

## C[C@@H](N)C1CC[C@@H](CC1)C(=O)NC2=CC=NC=C2 (some centres not stated)
[1]
  cell viability: 109%
[2]
  cell viability: 112%
[3]
  cell viability: 111%
[4]
  cell viability: 115%
[5]
  cell viability: 112%
[6]
  cell viability: 113%
[7]
  cell viability: 123%
[8]
  cell viability: 116%
[9]
  cell viability: 125%
[10]
  cell viability: 116%
[11]
  cell viability: 104%
[12]
  cell viability: 117%
[13]
  cell viability: 109%
[14]
  cell viability: 115%
[15]
  cell viability: 125%
[16]
  cell viability: 118%
[17]
  cell viability: 127%
[18]
  cell viability: 121%
[19]
  cell viability: 114%
[20]
  cell viability: 118%
[21]
  cell viability: 109%
[22]
  cell viability: 112%
[23]
  cell viability: 110%
[24]
  cell viability: 121%
[25]
  cell viability: 119%
[26]
  cell viability: 122%
[27]
  cell viability: 121%
[28]
  cell viability: 130%
[29]
  cell viability: 124%
[30]
  cell viability: 134%
[31]
  cell viability: 120%
[32]
  cell viability: 121%
[33]
  cell viability: 118%

## CCOC(=O)O[C@]1(C(=O)OCCl)CC[C@H]2[C@@H]3CCC4=CC(=O)C=C[C@]4(C)[C@H]3[C@@H](O)C[C@@]21C
[1]
  cell viability: 97.6%
[2]
  cell viability: 102%
[3]
  cell viability: 99.3%
[4]
  cell viability: 107%
[5]
  cell viability: 105%
[6]
  cell viability: 118%
[7]
  cell viability: 101%
[8]
  cell viability: 104%
[9]
  cell viability: 86.1%
[10]
  cell viability: 101%
[11]
  cell viability: 102%
[12]
  cell viability: 95.9%
[13]
  cell viability: 95.8%
[14]
  cell viability: 95.7%
[15]
  cell viability: 95%
[16]
  cell viability: 110%
[17]
  cell viability: 102%
[18]
  cell viability: 111%
[19]
  cell viability: 100%
[20]
  cell viability: 76%
[21]
  cell viability: 97.1%
[22]
  cell viability: 88.5%
[23]
  cell viability: 89%
[24]
  cell viability: 93.3%
[25]
  cell viability: 94.6%
[26]
  cell viability: 98.3%
[27]
  cell viability: 99.3%
[28]
  cell viability: 91.1%
[29]
  cell viability: 98.4%
[30]
  cell viability: 102%
[31]
  cell viability: 83.4%
[32]
  cell viability: 98.5%
[33]
  cell viability: 90.3%

## Clc1ccccc1C(c1ccccc1)(c1ccccc1)n1ccnc1
[1]
  cell viability: 108%
[2]
  cell viability: 114%
[3]
  cell viability: 107%
[4]
  cell viability: 115%
[5]
  cell viability: 108%
[6]
  cell viability: 110%
[7]
  cell viability: 107%
[8]
  cell viability: 96.7%
[9]
  cell viability: 100%
[10]
  cell viability: 91.7%
[11]
  cell viability: 74.8%
[23]
  cell viability: 103%
[24]
  cell viability: 114%
[25]
  cell viability: 112%
[26]
  cell viability: 108%
[27]
  cell viability: 106%
[28]
  cell viability: 110%
[29]
  cell viability: 103%
[30]
  cell viability: 102%
[31]
  cell viability: 88.6%
[32]
  cell viability: 93.8%
[33]
  cell viability: 58.5%
